Key:
human HDAC8 = molecular target: T1, human HDAC8 (Homo sapiens, UniProt Q9BY41); assay: HDAC8 homogenous fluorescence assay with ZMAL substrate; assay type: biochemical; settings: read-out: HDAC8 (% Inhib.)
T1 construct: made in house
T1 sequence (Q9BY41 1-377): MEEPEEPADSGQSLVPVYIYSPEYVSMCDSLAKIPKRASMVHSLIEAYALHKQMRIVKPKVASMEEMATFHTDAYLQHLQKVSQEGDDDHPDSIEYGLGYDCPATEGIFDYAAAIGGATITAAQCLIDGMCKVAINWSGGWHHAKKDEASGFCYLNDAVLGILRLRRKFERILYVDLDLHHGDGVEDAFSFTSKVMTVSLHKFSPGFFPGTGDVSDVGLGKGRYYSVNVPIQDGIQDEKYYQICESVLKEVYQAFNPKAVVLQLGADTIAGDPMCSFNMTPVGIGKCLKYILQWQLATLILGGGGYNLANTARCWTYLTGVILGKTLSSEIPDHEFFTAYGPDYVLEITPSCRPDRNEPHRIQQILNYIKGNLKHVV
Protocol: (§1) Recombinant human HDAC1, HDAC2, and HDAC3/NCOR1 were purchased from ENZO Life Sciences AG (Lausen, CH). Recombinant human HDAC 4, HDAC5, HDAC7, HDAC9 and HDAC11 were produced by Barinka lab in Prague, as described before. Recombinant human HDAC8 was produced by Romier et al. (IGBMC, Univ. Strasbourg), as described in [55].
Fluorescence intensity was measured at an excitation wavelength of 390 nm and an emission wavelength of 460 nm in a microtiter plate reader (BMG Polarstar).

in vitro = settings: human, HEK293 cells
Protocol: The cells were incubated for 48 h with the HDACi at a concentration of 50 µM, and cell viability was determined by the Alamar Blue assay.
To determine the cytotoxicity of the developed compounds on the human epithelial kidney, cell line HEK293 was used. HEK293 cells (DSMZ Braunschweig, ACC305) were incubated at 37 °C in a humidified incubator with 5% CO2 in Dulbecco’s Modified Eagle Medium (DMEM) supplemented with 10% FCS and 5 mM glutamine. Cells were seeded out at 1.5 x 10^3 cells per well in a 96-well cell culture plate (TPP, Switzerland). The compounds to be tested were added immediately to the medium at 50 µM. After 24 h, Alamar Blue reagent (Invitrogen, CA) was added according to the manufacturer’s instructions and incubated again for 21 h before samples were analyzed. Detection of viable cells which convert the resazurine reagent into the highly fluorescent resorufin was performed by using a FLUOstarOPTIMA microplate reader (BMG Labtec) with the following filter set: Ex 530 nm/Em 590 nm. Measurements were performed in triplicate and data are means with standard deviation <12%.

human HDAC1 = molecular target: T2, human HDAC1 (Homo sapiens, UniProt Q13547); assay: In vitro HDAC1 inhibition assay, fluorogenic p53 peptide Ac-RHKK(Acetyl)-AMC; assay type: biochemical; settings: for IC50: 10 nM HDAC1, 20 µM substrate, 90 min, 37 °C; for inhibition at 2 µM: read-out: HDAC1 % inhibition @ 2 µM; for inhibition at 1 µM: read-out: HDAC1 % inhibition @ 1 µM
T2 construct: purchased ENZO Life Sciences AG (Lausen, CH)
Protocol: as §1
(§2) The in vitro testing on recombinant HDACs 1-3 were performed with a fluorogenic peptide derived from p53 (Ac-RHKK(Acetyl)-AMC). The measurements were performed in an assay buffer (50 mM Hepes, 150 mM NaCl, 5 mM MgCl2, 1 mM TCEP and 0.2 mg/mL BSA, pH 7.4 adjusted with NaOH) at 37 °C. Inhibitors at different concentrations were incubated with 10 nM HDAC1, 3 nM HDAC2 or 3 nM HDAC3 (final concentration) for at least 5 min. The reaction was started with the addition of the fluorogenic substrate (20 µM final concentration) and incubated for 30 min for HDAC2 and HDAC3 and 90 min for HDAC1. The reaction was stopped with a solution of 1 mg/mL trypsin and 20 µM SAHA in 1 mM HCl and incubated for 1 h at 37 °C. […] The received fluorescence intensities were normalized with uninhibited reaction as 100% and the reaction without enzyme as 0%. A nonlinear regression analysis was done to determine the IC50 value.

human HDAC2 = molecular target: T3, human HDAC2 (Homo sapiens, UniProt Q92769); assay: In vitro HDAC2 inhibition assay, fluorogenic p53 peptide Ac-RHKK(Acetyl)-AMC; assay type: biochemical; settings: for IC50: 3 nM HDAC2, 20 µM substrate, 30 min, 37 °C; for inhibition at 2 µM: read-out: HDAC2 % inhibition @ 2 µM; for inhibition at 1 µM: read-out: HDAC2 % inhibition @ 1 µM
T3 construct: purchased ENZO Life Sciences AG (Lausen, CH)
Protocol: as §1, §2

human HDAC3/NCOR1 = molecular target: T4, human HDAC3/NCOR1 (Homo sapiens, UniProt O15379); assay: In vitro HDAC3 inhibition assay, fluorogenic p53 peptide Ac-RHKK(Acetyl)-AMC; assay type: biochemical; settings: for IC50: 3 nM HDAC3, 20 µM substrate, 30 min, 37 °C; for inhibition at 2 µM: read-out: HDAC3 % inhibition @ 2 µM; for inhibition at 1 µM: read-out: HDAC3 % inhibition @ 1 µM
T4 construct: purchased ENZO Life Sciences AG (Lausen, CH)
Protocol: as §1, §2

T2 sequence (Q13547 whole entry): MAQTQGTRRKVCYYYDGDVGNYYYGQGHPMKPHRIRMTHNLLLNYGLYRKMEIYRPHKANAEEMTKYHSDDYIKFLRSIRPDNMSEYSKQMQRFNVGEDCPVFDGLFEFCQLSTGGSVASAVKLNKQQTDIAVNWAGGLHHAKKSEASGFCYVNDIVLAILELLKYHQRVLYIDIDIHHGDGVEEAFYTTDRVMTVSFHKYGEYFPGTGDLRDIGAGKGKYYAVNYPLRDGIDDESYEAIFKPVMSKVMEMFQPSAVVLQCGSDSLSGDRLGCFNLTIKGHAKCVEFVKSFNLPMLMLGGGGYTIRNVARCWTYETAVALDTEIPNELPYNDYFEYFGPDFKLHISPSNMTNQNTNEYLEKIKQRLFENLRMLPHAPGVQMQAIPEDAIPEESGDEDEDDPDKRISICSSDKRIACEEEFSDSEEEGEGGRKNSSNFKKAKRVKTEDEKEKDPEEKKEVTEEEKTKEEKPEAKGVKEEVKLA
T4 sequence (O15379 whole entry): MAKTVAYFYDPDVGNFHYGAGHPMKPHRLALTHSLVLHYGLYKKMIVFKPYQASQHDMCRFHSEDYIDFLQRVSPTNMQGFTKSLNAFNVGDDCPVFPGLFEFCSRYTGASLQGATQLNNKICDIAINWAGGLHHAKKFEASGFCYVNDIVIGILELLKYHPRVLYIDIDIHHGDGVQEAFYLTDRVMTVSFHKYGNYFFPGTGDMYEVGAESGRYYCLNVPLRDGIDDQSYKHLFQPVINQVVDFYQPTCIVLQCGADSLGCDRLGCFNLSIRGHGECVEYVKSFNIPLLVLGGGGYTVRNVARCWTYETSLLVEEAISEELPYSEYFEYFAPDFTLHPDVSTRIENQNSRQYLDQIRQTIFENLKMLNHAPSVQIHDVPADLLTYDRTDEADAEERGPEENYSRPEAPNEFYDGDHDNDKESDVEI
T4 sequence (O75376 395-489 partner limits assumed): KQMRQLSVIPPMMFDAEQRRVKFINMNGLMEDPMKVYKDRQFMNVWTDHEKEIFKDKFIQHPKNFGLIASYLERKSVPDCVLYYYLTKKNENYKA
T3 sequence (Q92769 whole entry): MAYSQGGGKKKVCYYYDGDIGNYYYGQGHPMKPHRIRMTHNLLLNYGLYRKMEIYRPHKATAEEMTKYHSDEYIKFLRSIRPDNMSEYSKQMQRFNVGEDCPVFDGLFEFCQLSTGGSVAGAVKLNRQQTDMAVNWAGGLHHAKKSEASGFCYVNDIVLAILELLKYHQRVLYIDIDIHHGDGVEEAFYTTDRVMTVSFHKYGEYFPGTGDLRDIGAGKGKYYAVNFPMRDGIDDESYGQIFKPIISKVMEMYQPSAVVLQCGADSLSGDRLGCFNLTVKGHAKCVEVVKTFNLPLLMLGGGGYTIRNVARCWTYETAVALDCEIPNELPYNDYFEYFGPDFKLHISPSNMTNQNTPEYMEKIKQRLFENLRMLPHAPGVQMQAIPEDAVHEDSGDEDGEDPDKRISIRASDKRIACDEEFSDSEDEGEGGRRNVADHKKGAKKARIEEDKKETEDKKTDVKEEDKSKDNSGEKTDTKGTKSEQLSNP

Compound	inhibition at 1 µM (human HDAC8)	viability at 48 h, 50 µM (in vitro)	IC50 (human HDAC1)	IC50 (human HDAC2)	IC50 (human HDAC3/NCOR1)	inhibition at 2 µM (human HDAC1)	inhibition at 2 µM (human HDAC2)	inhibition at 2 µM (human HDAC3/NCOR1)	inhibition at 1 µM (human HDAC1)	inhibition at 1 µM (human HDAC2)	inhibition at 1 µM (human HDAC3/NCOR1)
Nc1ccccc1NC(=O)c1cnc(N2CCN(CCc3ccccc3)CC2)cn1 [19a, N-(2-Aminophenyl)-5-(4-phenethylpiperazin-1-yl)pyrazine-2-carboxamide]	0%	73.1%	0.51 ± 0.05 µM	0.8 ± 0.07 µM	1.12 ± 0.07 µM						
Nc1ccccc1NC(=O)c1cnc(N2CCN(CCc3ccc(Cl)cc3)CC2)cn1 [19b, N-(2-Aminophenyl)-5-(4-(4-chlorophenethyl)piperazin-1-yl)pyrazine-2-carboxamide]	3.4%	78.6%				25.8%	30.3%	65.2%			
Nc1ccccc1NC(=O)c1cnc(N2CCN(Cc3ccccn3)CC2)nc1 [19c, N-(2-aminophenyl)-2-(4-(pyridin-2-yl-methyl)piperazin-1-yl)pyrimidine-5-carboxamide]	0%	78.7%				33.9%	20.1%	26.8%			
Nc1ccccc1NC(=O)c1cnc(N2CCN(Cc3ccccn3)CC2)cn1 [19d, N-(2-Aminophenyl)-5-(4-(pyridin-2-ylmethyl)piperazin-1-yl)pyrazine-2-carboxamide]	0%	67.7%	0.52 ± 0.07 µM	1.43 ± 0.08 µM	1.06 ± 0.04 µM						
Nc1ccccc1NC(=O)c1cnc(N2CCN(Cc3csc4ccccc34)CC2)cn1 [19e, N-(2-Aminophenyl)-5-(4-(benzo[b]thiophen-3-ylmethyl)piperazin-1-yl)pyrazine-2-carboxamide]	0%	50.9%	0.21 ± 0.07 µM	0.71 ± 0.04 µM	0.84 ± 0.03 µM						
Nc1ccccc1NC(=O)c1cnc(N2CCN(CCc3c[nH]c4ccccc34)CC2)cn1 [19g, 5-(4-(2-(1.H-indol-3-yl)ethyl)piperazin-1-yl)-N-(2-aminophenyl)pyrazine-2-carboxamide]	0%	71.8%	0.31 ± 0.03 µM	0.96 ± 0.05 µM	0.49 ± 0.06 µM						
Nc1cc(F)c(F)cc1NC(=O)c1cnc(N2CCN(CCc3c[nH]c4ccccc34)CC2)cn1 [19h]		54.5%	0.81 ± 0.07 µM	0.74 ± 0.03 µM	0.57 ± 0.02 µM						
Nc1cc(Cl)ccc1NC(=O)c1cnc(N2CCN(CCc3c[nH]c4ccccc34)CC2)cn1 [19i, 5-(4-(2-(1H-indol-3-yl)ethyl)piperazin-1-yl)-N-(2-amino-4-chlorophenyl)pyrazine-2-carboxamide]		47.5%	3 ± 0.2 µM	2.7 ± 0.2 µM	1.9 ± 0.1 µM						
Cn1cc(CN2CCN(c3ncc(C(=O)Nc4ccccc4N)cn3)CC2)c2ccccc21 [19j, N-(2-aminophenyl)-2-(4-((1-methyl-1H-indol-3-yl)methyl)piperazin-1-yl)pyrimidine-5-carboxamide]	0%	62.5%	0.45 ± 0.06 µM	0.93 ± 0.04 µM	1.75 ± 0.06 µM						
Cn1cc(CN2CCN(c3cnc(C(=O)Nc4ccccc4N)cn3)CC2)c2ccccc21 [19k, N-(2-aminophenyl)-5-(4-((1-methyl-1H-indol-3-yl)methyl)piperazin-1-yl)pyrazine-2-carboxamide]	0%	71.4%	0.14 ± 0.02 µM	0.56 ± 0.04 µM	0.59 ± 0.03 µM						
Cn1cc(CN2CCN(c3cnc(C(=O)Nc4cc(F)c(F)cc4N)cn3)CC2)c2ccccc21 [19l]		20.1%	0.29 ± 0.03 µM	0.56 ± 0.02 µM	0.81 ± 0.05 µM						
Cn1cc(CCN2CCN(c3cnc(C(=O)Nc4ccc(F)cc4N)cn3)CC2)c2ccccc21 [19m, N-(2-Amino-4-fluorophenyl)-5-(4-(2-(1-methyl-1H-indol-3-yl)ethyl)piperazin-1-yl)pyrazine-2-carboxamide]		52.5%	0.4 ± 0.06 µM	1.48 ± 0.19 µM	0.4 ± 0.02 µM						
CN1CCN(c2ncc(C(=O)Nc3ccccc3N)cn2)CC1 [19n, N-(2-aminophenyl)-2-(4-methylpiperazin-1-yl)pyrimidine-5-carboxamide]									5%	7%	13%
CN1CCN(c2cnc(C(=O)Nc3ccccc3N)cn2)CC1 [19o, N-(2-aminophenyl)-5-(4-methylpiperazin-1-yl)pyrazine-2-carboxamide]									27%	15%	30%
Nc1ccc(-c2ccc(F)cc2)cc1NC(=O)c1cnc(N2CCN(CCc3c[nH]c4ccccc34)CC2)cn1 [21b, 5-(4-(2-(1H-indol-3-yl)ethyl)piperazin-1-yl)-N-(4-amino-4’-fluoro-[1,1’-biphenyl]-3-yl)pyrazine-2-carboxamide]	0%	71%	0.7 ± 0.08 µM	0.77 ± 0.06 µM							0%
Nc1ccc(-c2ccccc2F)cc1NC(=O)c1cnc(N2CCN(CCc3c[nH]c4ccccc34)CC2)cn1 [21c, 5-(4-(2-(1H-indol-3-yl)ethyl)piperazin-1-yl)-N-(4-amino-2’-fluoro-[1,1’-biphenyl]-3-yl)pyrazine-2-carboxamide]	0%	72.3%	0.76 ± 0.07 µM	0.76 ± 0.04 µM	15 ± 1 µM						
Cn1cc(CCN2CCN(c3cnc(C(=O)Nc4cc(F)ccc4N)cn3)CC2)c2ccccc21 [23c, N-(2-Amino-5-fluorophenyl)-5-(4-(2-(1-methyl-1H-indol-3-yl)ethyl)piperazin-1-yl)pyrazine-2-carboxamide]		55.7%	0.33 ± 0.02 µM	1.37 ± 0.08 µM	0.59 ± 0.04 µM						
Nc1cc(Cl)ccc1NC(=O)c1cnc(N2CCNCC2)cn1 [25a, N-(2-amino-4-chlorophenyl)-5-(piperazin-1-yl)pyrazine-2-carboxamide]					8.7 ± 0.4 µM				0%	0%	
Nc1cc(F)c(F)cc1NC(=O)c1cnc(N2CCNCC2)cn1 [25b, N-(2-amino-4,5-difluorophenyl)-5-(piperazin-1-yl)pyrazine-2-carboxamide]		83.7%	4.3 ± 0.3 µM	4.2 ± 0.1 µM	1.6 ± 0.1 µM						
Nc1ccc(C(F)(F)F)cc1NC(=O)c1cnc(N2CCNCC2)cn1 [27a, N-(2-amino-5-(trifluoromethyl)phenyl)-5-(piperazin-1-yl)pyrazine-2-carboxamide]									0%	0%	0%
Cc1ccc(NC(=O)c2cnc(N3CCNCC3)cn2)c(N)c1 [27b, N-(2-amino-4-methylphenyl)-5-(piperazin-1-yl)pyrazine-2-carboxamide]									0%	0%	0%
COc1ccc(NC(=O)c2cnc(N3CCNCC3)cn2)c(N)c1 [27c, N-(2-amino-4-methoxyphenyl)-5-(piperazin-1-yl)pyrazine-2-carboxamide]			20 ± 1 µM	14 ± 2 µM	14 ± 1 µM						
CN1CCN(c2cnc(C(=O)Nc3cc(-c4ccsc4)ccc3N)cn2)CC1 [29a, N-(2-amino-5-(thiophen-3-yl)phenyl)-5-(4-methylpiperazin-1-yl)pyrazine-2-carboxamide]		65.8%	0.11 ± 0.01 µM	0.18 ± 0.06 µM	4.4 ± 0.1 µM						
Nc1ccc(-c2ccc(F)cc2)cc1NC(=O)c1cnc(N2CCNCC2)cn1 [29c, N-(4-amino-4’-fluoro-[1,1’-biphenyl]-3-yl)-5-(piperazin-1-yl)pyrazine-2-carbox-amide]		2.2%	0.16 ± 0.03 µM	0.34 ± 0.01 µM	6.7 ± 0.5 µM						
CN1CCN(c2cnc(C(=O)Nc3cc(-c4ccccc4F)ccc3N)cn2)CC1 [29d, N-(4-amino-2’-fluoro-[1,1’-biphenyl]-3-yl)-5-(4-methylpiperazin-1-yl)pyrazine-2-carboxamide]		54%	0.18 ± 0.01 µM	0.26 ± 0.07 µM	12 ± 1 µM						
